Results published in ChEMBL document CHEMBL1152405, “Bis-anthracenyl isoxazolyl amides have enhanced anticancer activity” (Bioorg Med Chem Lett, 2009).

How the values were obtained:
Assay type in all cases: functional
A549 = assay: Growth inhibition of human A549 cells at 10 uM after 24 hrs by MTT assay relative to control; design: scale not given: the % may be the effect or the level left
NCI-H522 = assay: Growth inhibition of human NCI-H522 cells at 10 uM after 24 hrs by MTT assay relative to control; design: scale not given: the % may be the effect or the level left
COLO 205 [1] = assay: Growth inhibition of human COLO205 cells at 10 uM after 24 hrs by MTT assay relative to control; design: scale not given: the % may be the effect or the level left
HCT-116 = assay: Growth inhibition of human HCT116 cells at 10 uM after 24 hrs by MTT assay relative to control; design: scale not given: the % may be the effect or the level left
SW-620 = assay: Growth inhibition of human SW620 cells at 10 uM after 24 hrs by MTT assay relative to control; design: scale not given: the % may be the effect or the level left
NCI/ADR-RES = assay: Growth inhibition of human NCI/ADR-RES cells at 10 uM after 24 hrs by MTT assay relative to control; design: scale not given: the % may be the effect or the level left
OVCAR-3 = assay: Growth inhibition of human OVCAR-3 cells at 10 uM after 24 hrs by MTT assay relative to control; design: scale not given: the % may be the effect or the level left
OVCAR-4 = assay: Growth inhibition of human OVCAR4 cells at 10 uM after 24 hrs by MTT assay relative to control; design: scale not given: the % may be the effect or the level left
OVCAR-5 = assay: Growth inhibition of human OVCAR5 cells at 10 uM after 24 hrs by MTT assay relative to control; design: scale not given: the % may be the effect or the level left
MOLT-4 = assay: Growth inhibition of human MOLT4 cells at 10 uM after 24 hrs by MTT assay relative to control; design: scale not given: the % may be the effect or the level left
A498 = assay: Growth inhibition of human A498 cells at 10 uM after 24 hrs by MTT assay relative to control; design: scale not given: the % may be the effect or the level left
CAKI-1 = assay: Growth inhibition of human Caki1 cells at 10 uM after 24 hrs by MTT assay relative to control; design: scale not given: the % may be the effect or the level left
SN12C = assay: Growth inhibition of human SN12C cells at 10 uM after 24 hrs by MTT assay relative to control; design: scale not given: the % may be the effect or the level left
TK-10 = assay: Growth inhibition of human TK10 cells at 10 uM after 24 hrs by MTT assay relative to control; design: scale not given: the % may be the effect or the level left
SK-MEL-5 = assay: Growth inhibition of human SK-MEL-5 cells at 10 uM after 24 hrs by MTT assay relative to control; design: scale not given: the % may be the effect or the level left
SF-295 = assay: Growth inhibition of human SF295 cells at 10 uM after 24 hrs by MTT assay relative to control; design: scale not given: the % may be the effect or the level left
SNB-19 = assay: Growth inhibition of human SNB19 cells at 10 uM after 24 hrs by MTT assay relative to control; design: scale not given: the % may be the effect or the level left
U-251 = assay: Growth inhibition of human U251 cells at 10 uM after 24 hrs by MTT assay relative to control; design: scale not given: the % may be the effect or the level left
HL-60(TB) = assay: Growth inhibition of human HL-60(TB) cells after 24 hrs by MTT assay; conditions: HL-60, 24 h
K562 = assay: Growth inhibition of human K562 cells after 24 hrs by MTT assay; conditions: K562, 24 h
EKVX = assay: Growth inhibition of human EKVX cells after 24 hrs by MTT assay
COLO 205 [2] = assay: Growth inhibition of human COLO205 cells after 24 hrs by MTT assay; conditions: COLO 205, 24 h
HCT-15 = assay: Growth inhibition of human HCT15 cells after 24 hrs by MTT assay; conditions: HCT-15, 24 h
SNB-75 = assay: Growth inhibition of human SNB75 cells after 24 hrs by MTT assay; conditions: SNB-75, 24 h
[3] = read-out: LC50 (the source's name)
[4] = read-out: pLC50 (the source's name) (converted)

Cc1onc(-c2c3ccccc3c(Cl)c3ccccc23)c1C(=O)Nc1cc(C(=O)NCCCN(C)CCCNC(=O)c2cc(NC(=O)c3c(-c4c5ccccc5c(Cl)c5ccccc45)noc3C)cn2C)n(C)c1
Activity (A549): -59.15%
Activity (NCI-H522): -85.33%
Activity (COLO 205 [1]): -100%
Activity (HCT-116): -84.49%
Activity (SW-620): -100%
Activity (NCI/ADR-RES): 47.82%
Activity (OVCAR-3): -100%
Activity (OVCAR-4): -100%
Activity (OVCAR-5): -85.02%
Activity (MOLT-4): -100%
Activity (A498): 103.19%
Activity (CAKI-1): -74.88%
Activity (SN12C): -96.46%
Activity (TK-10): -89.17%
Activity (SK-MEL-5): -100%
Activity (SF-295): -75.66%
Activity (SNB-19): -100%
Activity (U-251): -100%
TGI (HL-60(TB)): 8300 nM
GI50 (HL-60(TB); read-out: GI50): 1610 nM
CC50 (HL-60(TB); [3]): 42000 nM
GI50 (HL-60(TB); read-out: pGI50 (converted)): 1620 nM
CC50 (HL-60(TB); [4]): 41700 nM
TGI (K562): 2190 nM
GI50 (K562; read-out: GI50): 822 nM
CC50 (K562; [3]): 5140 nM
GI50 (K562; read-out: pGI50 (converted)): 813 nM
CC50 (K562; [4]): 5130 nM
TGI (EKVX): 5270 nM
GI50 (EKVX; read-out: GI50): 1910 nM
CC50 (EKVX; [3]): 100000 nM
GI50 (EKVX; read-out: pGI50 (converted)): 1910 nM
CC50 (EKVX; [4]): > 100000 nM
TGI (COLO 205 [2]): 2480 nM
GI50 (COLO 205 [2]; read-out: GI50): 1240 nM
CC50 (COLO 205 [2]; [3]): 4980 nM
GI50 (COLO 205 [2]; read-out: pGI50 (converted)): 1230 nM
CC50 (COLO 205 [2]; [4]): 5010 nM
TGI (HCT-15): 3700 nM
GI50 (HCT-15; read-out: GI50): 1770 nM
GI50 (HCT-15; read-out: pGI50 (converted)): 1780 nM
TGI (SNB-75): 2710 nM
GI50 (SNB-75; read-out: GI50): 1070 nM
CC50 (SNB-75; [3]): 6840 nM
